Data from patent US8969565B2, “Imidazo[1,2-b]pyridazine-based compounds, compositions comprising them, and methods of their use” (Lexicon Pharmaceuticals, Inc., priority 2012, dated 2015).

Target: T1, AAK1 (Homo sapiens, UniProt Q2M2I8)
T1 construct: HA; expressed in transfected cells; host or cells: HEK293F
Assay: HEK281 cell-based assay (phospho-mu2 Western blot in transfected HEK293F cells)
Details: 3 hours incubation, read-out: CBA IC50
Method in brief: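 After 3 hours at 37° C. with compound (five 3-fold-spaced concentrations, DMEM+0.5% FBS), transiently transfected HEK293F cells expressing full-length human AAK1 and Flag-tagged mu2 were lysed. mu2 phosphorylation was read by anti-phospho-mu2 immunoblot, normalized against total mu2 by anti-Flag blot.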

T1 sequence (Q2M2I8 1-863 isoform Q2M2I8-2): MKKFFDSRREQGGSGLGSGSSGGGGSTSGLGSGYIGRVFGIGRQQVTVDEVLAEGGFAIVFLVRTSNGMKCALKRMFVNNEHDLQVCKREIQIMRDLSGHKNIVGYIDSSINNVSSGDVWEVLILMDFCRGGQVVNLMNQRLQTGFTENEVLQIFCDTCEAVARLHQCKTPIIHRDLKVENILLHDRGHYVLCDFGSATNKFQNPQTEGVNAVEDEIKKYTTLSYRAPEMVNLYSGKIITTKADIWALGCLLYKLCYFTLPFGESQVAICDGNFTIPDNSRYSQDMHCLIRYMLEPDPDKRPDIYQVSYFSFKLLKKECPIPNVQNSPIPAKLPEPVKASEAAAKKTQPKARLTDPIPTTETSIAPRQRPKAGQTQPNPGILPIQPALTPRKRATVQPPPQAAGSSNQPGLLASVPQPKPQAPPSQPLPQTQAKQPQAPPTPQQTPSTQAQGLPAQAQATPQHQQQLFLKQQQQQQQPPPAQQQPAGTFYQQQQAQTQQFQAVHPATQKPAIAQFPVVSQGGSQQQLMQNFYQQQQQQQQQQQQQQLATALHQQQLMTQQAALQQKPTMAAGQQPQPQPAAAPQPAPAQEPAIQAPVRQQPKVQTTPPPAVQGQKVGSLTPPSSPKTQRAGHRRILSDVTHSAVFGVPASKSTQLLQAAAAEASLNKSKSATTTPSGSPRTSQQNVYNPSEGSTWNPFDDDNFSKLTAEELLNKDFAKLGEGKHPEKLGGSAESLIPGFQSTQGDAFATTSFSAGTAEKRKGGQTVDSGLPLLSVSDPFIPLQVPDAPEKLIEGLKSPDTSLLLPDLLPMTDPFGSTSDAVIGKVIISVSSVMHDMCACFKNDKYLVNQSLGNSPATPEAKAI

SMILES | IC50 [nM]
CC(C)OC(=O)N(CCNc1ccc2ncc(-c3ccccc3)n2n1)C(C)C [isopropyl isopropyl(2-((3-phenylimidazo[1,2-b]pyridazin-6-yl)amino)ethyl)carbamate] | ≤ 100
CNC(=O)c1ccc(-c2cnc3ccc(NCCN(C)C(=O)OC(C)C)nn23)cc1 [isopropyl methyl(2-((3-(4-(methylcarbamoyl)phenyl)imidazo[1,2-b]pyridazin-6-yl)amino)ethyl)carbamate] | ≤ 100
CC(C)OC(=O)N(C)CCNc1ccc2ncc(-c3ccc(C4CCCN4)cc3)n2n1 (stereo not drawn) [isopropyl methyl(2-((3-(4-(pyrrolidin-2-yl)phenyl)imidazo[1,2-b]pyridazin-6-yl)amino)ethyl)carbamate] | ≤ 10
CC(C)OC(=O)N(C)CCNc1ccc2ncc(-c3cscn3)n2n1 [isopropyl methyl(2-((3-(thiazol-4-yl)imidazo[1,2-b]pyridazin-6-yl)amino)ethyl)carbamate] | ≤ 100
COC(=O)N(CCNc1ccc2ncc(-c3ccncc3OC)n2n1)C(C)C [methyl isopropyl(2-((3-(3-methoxypyridin-4-yl)imidazo[1,2-b]pyridazin-6-yl)amino)ethyl)carbamate] | ≤ 10
CCCOC(=O)N(CCNc1ccc2ncc(-c3ccncc3OC)n2n1)C(C)C [propyl isopropyl(2-((3-(3-methoxypyridin-4-yl)imidazo[1,2-b]pyridazin-6-yl)amino)ethyl)carbamate] | ≤ 1000
CC(C)(C)OC(=O)N1CCCC1CCNc1ccc2ncc(-c3ccc(CN)cc3)n2n1 (stereo not drawn) [tert-butyl 2-(2-((3-(4-(aminomethyl)phenyl)imidazo[1,2-b]pyridazin-6-yl)amino)ethyl)pyrrolidine-1-carboxylate] | ≤ 10
CC(C)(C)OC(=O)N1CCCC1CCNc1ccc2ncc(-c3ccc(C(N)=O)cc3)n2n1 (stereo not drawn) [tert-butyl 2-(2-((3-(4-carbamoylphenyl)imidazo[1,2-b]pyridazin-6-yl)amino)ethyl)pyrrolidine-1-carboxylate] | ≤ 100
COc1cnccc1-c1cnc2ccc(N3CCN(C(=O)OC(C)(C)C)CC3)nn12 [tert-butyl 4-(3-(3-methoxypyridin-4-yl)imidazo[1,2-b]pyridazin-6-yl)piperazine-1-carboxylate] | ≤ 10
CC(C)(C)OC(=O)N1CCN(c2ccc3ncc(Cl)n3n2)CC1 [tert-butyl 4-(3-chloroimidazo[1,2-b]pyridazin-6-yl)piperazine-1-carboxylate] | ≤ 100
CN(CCNc1ccc2ncc(-c3ccnc(N)c3)n2n1)C(=O)OC(C)(C)C [tert-butyl (2-((3-(2-aminopyridin-4-yl)imidazo[1,2-b]pyridazin-6-yl)amino)ethyl)(methyl)carbamate] | ≤ 10
CN(CCNc1ccc2ncc(-c3ccccc3F)n2n1)C(=O)OC(C)(C)C [tert-butyl (2-((3-(2-fluorophenyl)imidazo[1,2-b]pyridazin-6-yl)amino)ethyl)(methyl)carbamate] | ≤ 100
CN(CCNc1ccc2ncc(-c3ccnc(F)c3)n2n1)C(=O)OC(C)(C)C [tert-butyl (2-((3-(2-fluoropyridin-4-yl)imidazo[1,2-b]pyridazin-6-yl)amino)ethyl)(methyl)carbamate] | ≤ 100
COc1ccccc1-c1cnc2ccc(NCCN(C)C(=O)OC(C)(C)C)nn12 [tert-butyl (2-((3-(2-methoxyphenyl)imidazo[1,2-b]pyridazin-6-yl)amino)ethyl)(methyl)carbamate] | ≤ 100
CN(CCNc1ccc2ncc(-c3cccc(C(N)=O)c3)n2n1)C(=O)OC(C)(C)C [tert-butyl (2-((3-(3-carbamoylphenyl)imidazo[1,2-b]pyridazin-6-yl)amino)ethyl)(methyl)carbamate] | ≤ 100
COc1cccc(-c2cnc3ccc(NCCN(C)C(=O)OC(C)(C)C)nn23)c1 [tert-butyl (2-((3-(3-methoxyphenyl)imidazo[1,2-b]pyridazin-6-yl)amino)ethyl)(methyl)carbamate] | ≤ 100
COc1cnccc1-c1cnc2ccc(NCCN(C)C(=O)OC(C)(C)C)nn12 [tert-butyl (2-((3-(3-methoxypyridin-4-yl)imidazo[1,2-b]pyridazin-6-yl)amino)ethyl)(methyl)carbamate] | ≤ 1000
CC(C)(C)OC(=O)NCCNc1ccc2ncc(-c3ccc(CN)cc3)n2n1 [tert-butyl (2-((3-(4-(aminomethyl)phenyl)imidazo[1,2-b]pyridazin-6-yl)amino)ethyl)carbamate] | ≤ 100
CN(CCNc1ccc2ncc(-c3ccc(CC#N)cc3)n2n1)C(=O)OC(C)(C)C [tert-butyl (2-((3-(4-(cyanomethyl)phenyl)imidazo[1,2-b]pyridazin-6-yl)amino)ethyl)(methyl)carbamate] | ≤ 100
CC(C)N(CCNc1ccc2ncc(-c3ccc(C(N)=O)cc3)n2n1)C(=O)OC(C)(C)C [tert-butyl (2-((3-(4-carbamoylphenyl)imidazo[1,2-b]pyridazin-6-yl)amino)ethyl)(isopropyl)carbamate] | ≤ 10
CC(=O)c1ccc(-c2cnc3ccc(NCCN(C)C(=O)OC(C)(C)C)nn23)s1 [tert-butyl (2-((3-(5-acetylthiophen-2-yl)imidazo[1,2-b]pyridazin-6-yl)amino)ethyl)(methyl)carbamate] | ≤ 10
CN(CCCNc1ccc2ncc(-c3ccc(CN)cc3)n2n1)C(=O)OC(C)(C)C [tert-butyl (3-((3-(4-(aminomethyl)phenyl)imidazo[1,2-b]pyridazin-6-yl)amino)propyl)(methyl)carbamate] | ≤ 100
CC(=O)c1ccc(-c2cnc3ccc(NCCCN(C)C(=O)OC(C)(C)C)nn23)s1 [tert-butyl (3-((3-(5-acetylthiophen-2-yl)imidazo[1,2-b]pyridazin-6-yl)amino)propyl)(methyl)carbamate] | ≤ 100
COc1cnccc1-c1cnc2ccc(NCCN(C(=O)OC(C)(C)C)C(C)C)nn12 [tert-butyl isopropyl(2-((3-(3-methoxypyridin-4-yl)imidazo[1,2-b]pyridazin-6-yl)amino)ethyl)carbamate] | ≤ 100
CNC(=O)c1ccc(-c2cnc3ccc(NCCN(C)C(=O)OC(C)(C)C)nn23)cc1 [tert-butyl methyl(2-((3-(4-(methylcarbamoyl)phenyl)imidazo[1,2-b]pyridazin-6-yl)amino)ethyl)carbamate] | ≤ 100
CN(CCNc1ccc2ncc(-c3ccc(C4CCCN4)cc3)n2n1)C(=O)OC(C)(C)C (stereo not drawn) [tert-butyl methyl(2-((3-(4-(pyrrolidin-2-yl)phenyl)imidazo[1,2-b]pyridazin-6-yl)amino)ethyl)carbamate] | ≤ 10
CN(CCNc1ccc2ncc(-c3ccncc3)n2n1)C(=O)OC(C)(C)C [tert-butyl methyl(2-((3-(pyridin-4-yl)imidazo[1,2-b]pyridazin-6-yl)amino)ethyl)carbamate] | ≤ 100
